According to ChEMBL document CHEMBL3045770, “Design and synthesis of some thieno[2,3-c]pyridazine derivatives of expected anticancer activity” (2013):

What was measured:
Type in all cases: functional
SK-MEL-28 = experiment: Cytotoxicity against Homo sapiens (human) SK-MEL-28 assessed as cell growth at 10 uM after 48 hr by SRB assay relative to control; settings: SK-MEL-28, 48 h, read-out: Activity
COLO 205 = experiment: Cytotoxicity against Homo sapiens (human) COLO205 assessed as cell growth at 10 uM after 48 hr by SRB assay relative to control; settings: COLO 205, 48 h, read-out: Activity
UACC-257 = experiment: Cytotoxicity against Homo sapiens (human) UACC257 assessed as cell growth at 10 uM after 48 hr by SRB assay relative to control; settings: UACC-257, 48 h, read-out: Activity
HOP-92 = experiment: Cytotoxicity against Homo sapiens (human) HOP92 assessed as cell growth at 10 uM after 48 hr by SRB assay relative to control; settings: HOP-92, 48 h, read-out: Activity
MOLT-4 = experiment: Cytotoxicity against Homo sapiens (human) MOLT4 assessed as cell growth at 10 uM after 48 hr by SRB assay relative to control; settings: MOLT-4, 48 h, read-out: Activity
MDA-MB-435 = experiment: Cytotoxicity against Homo sapiens (human) MDA-MB-435 assessed as cell growth at 10 uM after 48 hr by SRB assay relative to control; settings: MDA-MB-435, 48 h, read-out: Activity
NCI-H226 = experiment: Cytotoxicity against Homo sapiens (human) NCI-H226 assessed as cell growth at 10 uM after 48 hr by SRB assay relative to control; settings: NCI-H226, 48 h, read-out: Activity
OVCAR-5 = experiment: Cytotoxicity against Homo sapiens (human) OVCAR5 assessed as cell growth at 10 uM after 48 hr by SRB assay relative to control; settings: OVCAR-5, 48 h, read-out: Activity
OVCAR-3 = experiment: Cytotoxicity against Homo sapiens (human) OVCAR3 assessed as cell growth at 10 uM after 48 hr by SRB assay relative to control; settings: OVCAR-3, 48 h, read-out: Activity
ACHN = experiment: Cytotoxicity against Homo sapiens (human) ACHN assessed as cell growth at 10 uM after 48 hr by SRB assay relative to control; settings: read-out: Activity
SF-539 = experiment: Cytotoxicity against Homo sapiens (human) SF539 assessed as cell growth at 10 uM after 48 hr by SRB assay relative to control; settings: SF-539, 48 h, read-out: Activity
SF-268 = experiment: Cytotoxicity against Homo sapiens (human) SF268 assessed as cell growth at 10 uM after 48 hr by SRB assay relative to control; settings: SF-268, 48 h, read-out: Activity
HOP-62 = experiment: Cytotoxicity against Homo sapiens (human) HOP62 assessed as cell growth at 10 uM after 48 hr by SRB assay relative to control; settings: HOP-62, 48 h, read-out: Activity
786-0 = experiment: Cytotoxicity against Homo sapiens (human) 786-0 assessed as cell growth at 10 uM after 48 hr by SRB assay relative to control; settings: 786-0, 48 h, read-out: Activity
SK-OV-3 = experiment: Cytotoxicity against Homo sapiens (human) SKOV3 assessed as cell growth at 10 uM after 48 hr by SRB assay relative to control; settings: SK-OV-3, 48 h, read-out: Activity
KM12 = experiment: Cytotoxicity against Homo sapiens (human) KM12 assessed as cell growth at 10 uM after 48 hr by SRB assay relative to control; settings: KM12, 48 h, read-out: Activity
SNB-19 = experiment: Cytotoxicity against Homo sapiens (human) SNB19 assessed as cell growth at 10 uM after 48 hr by SRB assay relative to control; settings: SNB-19, 48 h, read-out: Activity
Hs-578T = experiment: Cytotoxicity against Homo sapiens (human) Hs 578T assessed as cell growth at 10 uM after 48 hr by SRB assay relative to control; settings: read-out: Activity
EKVX = experiment: Cytotoxicity against Homo sapiens (human) EKVX assessed as cell growth at 10 uM after 48 hr by SRB assay relative to control; settings: read-out: Activity
MCF7 = experiment: Cytotoxicity against Homo sapiens (human) MCF7 assessed as cell growth at 10 uM after 48 hr by SRB assay relative to control; settings: MCF7, 48 h, read-out: Activity
HCT-15 = experiment: Cytotoxicity against Homo sapiens (human) HCT15 assessed as cell growth at 10 uM after 48 hr by SRB assay relative to control; settings: HCT-15, 48 h, read-out: Activity
SK-MEL-2 = experiment: Cytotoxicity against Homo sapiens (human) SK-MEL-2 assessed as cell growth at 10 uM after 48 hr by SRB assay relative to control; settings: SK-MEL-2, 48 h, read-out: Activity
NCI-H522 = experiment: Cytotoxicity against Homo sapiens (human) NCI-H522 assessed as cell growth at 10 uM after 48 hr by SRB assay relative to control; settings: NCI-H522, 48 h, read-out: Activity
SW-620 = experiment: Cytotoxicity against Homo sapiens (human) SW620 assessed as cell growth at 10 uM after 48 hr by SRB assay relative to control; settings: SW-620, 48 h, read-out: Activity
T47D = experiment: Cytotoxicity against Homo sapiens (human) T47D assessed as cell growth at 10 uM after 48 hr by SRB assay relative to control; settings: read-out: Activity
HCT-116 = experiment: Cytotoxicity against Homo sapiens (human) HCT116 assessed as cell growth at 10 uM after 48 hr by SRB assay relative to control; settings: HCT-116, 48 h, read-out: Activity
NCI-H460 = experiment: Cytotoxicity against Homo sapiens (human) NCI-H460 assessed as cell growth at 10 uM after 48 hr by SRB assay relative to control; settings: NCI-H460, 48 h, read-out: Activity
BT-549 = experiment: Cytotoxicity against Homo sapiens (human) BT549 assessed as cell growth at 10 uM after 48 hr by SRB assay relative to control; settings: BT-549, 48 h, read-out: Activity
SN12C = experiment: Cytotoxicity against Homo sapiens (human) SN12C assessed as cell growth at 10 uM after 48 hr by SRB assay relative to control; settings: read-out: Activity
[1] = Cytotoxicity against Homo sapiens (human) NCI-ADR-RES assessed as cell growth at 10 uM after 48 hr by SRB assay relative to control; settings: read-out: Activity

| SMILES | growth at 10 µM (SK-MEL-28) [%] | growth at 10 µM (COLO 205) [%] | growth at 10 µM (UACC-257) [%] | growth at 10 µM (MOLT-4) [%] | growth at 10 µM (MDA-MB-435) [%] | growth at 10 µM (NCI-H226) [%] | growth at 10 µM (OVCAR-5) [%] | growth at 10 µM (OVCAR-3) [%] | growth at 10 µM (ACHN) [%] | growth at 10 µM (SF-539) [%] | growth at 10 µM (SF-268) [%] | growth at 10 µM (HOP-62) [%] | growth at 10 µM (786-0) [%] | growth at 10 µM (KM12) [%] | growth at 10 µM (SNB-19) [%] | growth at 10 µM (Hs-578T) [%] | growth at 10 µM (EKVX) [%] | growth at 10 µM (HCT-15) [%] | growth at 10 µM (SK-MEL-2) [%] | growth at 10 µM (NCI-H522) [%] | other results |
| --- | --- | --- | --- | --- | --- | --- | --- | --- | --- | --- | --- | --- | --- | --- | --- | --- | --- | --- | --- | --- | --- |
| Oc1c(-c2n[nH]c(=S)o2)sc2nnc(-c3ccccc3)c(-c3ccccc3)c12 | 102 | 106 | 97 | 91 | 93.6 | 91.5 | 102 | 115 | 92.4 | 106 | 102 | 99.7 | 108 | 119 | 103 | 121 | 102 | 103 | 106 | 102 | growth at 10 µM (HOP-92): 72.3%; growth at 10 µM (SK-OV-3): 96.4%; growth at 10 µM (MCF7): 92%; growth at 10 µM (SW-620): 124%; growth at 10 µM (T47D): 105%; growth at 10 µM (HCT-116): 103%; growth at 10 µM (NCI-H460): 116%; growth at 10 µM (BT-549): 99.5%; growth at 10 µM (SN12C): 94% |
| CSc1nnc(-c2sc3nnc(-c4ccccc4)c(-c4ccccc4)c3c2O)o1 | 85.5 | 110 | 91.6 | 61.9 | 88.4 | 87.7 | 101 | 86.8 | 83.6 | 84.6 | 80.6 | 71.1 | 88.7 | 72.9 | 66.4 | 98.4 | 77.5 | 54.6 | 102 | 96.6 | growth at 10 µM [1]: 85.5%; growth at 10 µM (MCF7): 83.5%; growth at 10 µM (SW-620): 92.5%; growth at 10 µM (T47D): 75%; growth at 10 µM (HCT-116): 60.9%; growth at 10 µM (NCI-H460): 56.7%; growth at 10 µM (BT-549): 74.1%; growth at 10 µM (SN12C): 75.7% |
| CCOC(=O)c1c(Nc2ccc(S(=O)(=O)Nc3nccs3)cc2)nnc(-c2ccccc2)c1-c1ccccc1 | 113 | 114 | 104 | 79.3 | 119 | 102 | 117 | 120 | 102 | 117 | 112 | 117 | 109 | 114 | 108 | 118 | 102 | 106 | 118 | 103 | growth at 10 µM (HOP-92): 84.3%; growth at 10 µM (SK-OV-3): 106%; growth at 10 µM (SW-620): 131%; growth at 10 µM (T47D): 104%; growth at 10 µM (HCT-116): 98.6%; growth at 10 µM (NCI-H460): 111%; growth at 10 µM (BT-549): 98.9%; growth at 10 µM (SN12C): 94.8% |
